Experimental data taken from ChEMBL document CHEMBL1201862, “PubChem BioAssay data set” (2004).
The source made the active and inactive calls.

Assays:
[1] = target: T1, Long-chain-fatty-acid--AMP ligase FadD28 (Mycobacterium tuberculosis, UniProt P9WQ59); assay: Fluorescence polarization aasay to screen for inhibitors that compete for the binding of FadD28 to a bisubstrate Measured in Biochemical System Using Plate Reader - 2147-01_Inhibitor_Dose_CherryPick_Activity.; format: functional, Mycobacterium tuberculosis H37Rv
T1 sequence (P9WQ59 whole entry): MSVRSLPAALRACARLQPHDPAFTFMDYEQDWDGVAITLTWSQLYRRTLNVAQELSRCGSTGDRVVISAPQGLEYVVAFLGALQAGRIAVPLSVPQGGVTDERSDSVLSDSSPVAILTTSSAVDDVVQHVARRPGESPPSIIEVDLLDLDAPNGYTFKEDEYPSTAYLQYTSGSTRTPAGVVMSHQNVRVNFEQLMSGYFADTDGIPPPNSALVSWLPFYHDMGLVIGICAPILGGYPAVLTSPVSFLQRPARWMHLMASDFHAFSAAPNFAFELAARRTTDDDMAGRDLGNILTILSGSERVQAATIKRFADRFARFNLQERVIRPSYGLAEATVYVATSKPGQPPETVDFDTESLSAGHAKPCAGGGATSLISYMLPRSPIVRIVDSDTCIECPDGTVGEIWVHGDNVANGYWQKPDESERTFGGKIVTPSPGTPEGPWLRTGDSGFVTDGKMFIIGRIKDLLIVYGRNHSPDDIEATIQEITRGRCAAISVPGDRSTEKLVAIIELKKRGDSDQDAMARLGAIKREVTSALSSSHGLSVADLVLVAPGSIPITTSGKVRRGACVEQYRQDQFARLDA

[2] = inhibitors of HIV Env-driven cell fusion, dose response, cherry-pick (AID 652057); format: functional, cell-based
[3] = CEM21 lymphoblast cell cytotoxicity, dose response, cytotoxicity control for viral fusion inhibitor project, CellTiter-Glo luminescence, cherry-picked (AID 652042); format: functional, cell-based;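 further: potency for signal decrease meaning cytotoxicity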
[4] = ZM109 Env clade C HIV-1 fusion inhibitors, dose response, HeLa effector, CEM target cells, luciferase, cherry-pick (AID 652058); format: functional, cell-based
[5] = off-target signal loss in HeLa-CEM21 co-culture – HeLa F-luc CTL cells, cherry-picked, counter-screen for HIV-1 Env fusion inhibitor project, dose response (AID 652040); format: functional, cell-based;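 further: potency for signal decrease marking cytotoxic or nonspecific inhibition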
[6] = target: T2, Sentrin-specific protease 8 (Homo sapiens, UniProt Q96LD8); format: functional
T2 sequence (Q96LD8 whole entry): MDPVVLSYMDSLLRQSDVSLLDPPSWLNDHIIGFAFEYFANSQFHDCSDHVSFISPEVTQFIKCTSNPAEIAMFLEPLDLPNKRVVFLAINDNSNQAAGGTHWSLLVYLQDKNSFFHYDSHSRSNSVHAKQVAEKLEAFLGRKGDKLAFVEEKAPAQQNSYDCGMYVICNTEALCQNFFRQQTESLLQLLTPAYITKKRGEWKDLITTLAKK

[7] = target: T2, Sentrin-specific protease 8; format: functional; remark: listed apart in the source
[8] = HeLa cell cytotoxicity, dose response, cytotoxicity control for MgcRacGAP inhibitor project (AID 624300); format: functional
[9] = target: T3, Rac GTPase-activating protein 1 (Homo sapiens, UniProt Q9H0H5); assay: MgcRacGAP GTPase-activating activity inhibitors, confirmation, biochemical, ADP Hunter fluorescence, primary and confirmatory (AID 624330); format: functional
T3 sequence (Q9H0H5 whole entry): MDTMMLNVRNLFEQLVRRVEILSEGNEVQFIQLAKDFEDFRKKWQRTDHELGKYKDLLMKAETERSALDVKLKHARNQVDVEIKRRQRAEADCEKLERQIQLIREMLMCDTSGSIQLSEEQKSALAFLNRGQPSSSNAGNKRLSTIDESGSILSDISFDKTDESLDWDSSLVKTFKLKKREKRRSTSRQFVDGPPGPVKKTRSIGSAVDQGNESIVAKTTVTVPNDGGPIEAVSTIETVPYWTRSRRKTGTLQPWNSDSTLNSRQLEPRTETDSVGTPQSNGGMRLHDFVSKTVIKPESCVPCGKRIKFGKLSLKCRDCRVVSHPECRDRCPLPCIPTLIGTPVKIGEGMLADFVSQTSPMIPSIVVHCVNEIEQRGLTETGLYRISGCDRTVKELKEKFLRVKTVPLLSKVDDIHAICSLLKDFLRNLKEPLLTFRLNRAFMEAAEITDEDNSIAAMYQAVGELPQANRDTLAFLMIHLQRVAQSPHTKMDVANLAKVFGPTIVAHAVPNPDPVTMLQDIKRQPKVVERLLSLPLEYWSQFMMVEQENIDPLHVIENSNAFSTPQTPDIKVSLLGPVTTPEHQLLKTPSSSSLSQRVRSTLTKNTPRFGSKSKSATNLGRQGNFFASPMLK

Protein skinhead-1 = target: T4, Protein skinhead-1 (Caenorhabditis elegans, UniProt P34707); format: functional
T4 sequence (P34707 whole entry): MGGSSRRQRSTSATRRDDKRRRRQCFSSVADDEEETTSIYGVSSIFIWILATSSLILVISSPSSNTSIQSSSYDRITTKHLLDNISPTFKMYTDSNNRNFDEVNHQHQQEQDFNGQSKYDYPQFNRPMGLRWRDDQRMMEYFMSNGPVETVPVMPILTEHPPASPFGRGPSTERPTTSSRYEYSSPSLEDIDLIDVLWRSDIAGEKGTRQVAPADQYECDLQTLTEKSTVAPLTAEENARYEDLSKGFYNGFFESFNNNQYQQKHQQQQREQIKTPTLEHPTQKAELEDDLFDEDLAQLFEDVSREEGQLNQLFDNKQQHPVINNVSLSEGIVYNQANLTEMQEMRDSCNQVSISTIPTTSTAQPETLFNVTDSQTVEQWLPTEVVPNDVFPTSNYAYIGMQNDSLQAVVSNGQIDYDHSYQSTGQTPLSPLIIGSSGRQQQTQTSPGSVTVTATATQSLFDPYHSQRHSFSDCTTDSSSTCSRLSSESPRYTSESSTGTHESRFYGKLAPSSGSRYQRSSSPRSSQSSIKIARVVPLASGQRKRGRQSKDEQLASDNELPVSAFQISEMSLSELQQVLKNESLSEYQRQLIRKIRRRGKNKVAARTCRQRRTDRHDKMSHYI

[10] = target: SWI/SNF-related matrix-associated actin-dependent regulator of chromatin subfamily A member 2 (Homo sapiens, UniProt P51531); assay: Luminescence-based cell-based high throughput dose response assay to identify activators of the function of SWI/SNF related, matrix associated, actin dependent regulator of chromatin, subfamily a, member 2 (SMARCA2, BRM).; format: functional
[11] = Counterscreen for activators of the function of SWI/SNF related, matrix associated, actin dependent regulator of chromatin, subfamily a, member 2 (SMARCA2, BRM): Luminescence-based cell-based high throughput dose response assay to identify non-selective compounds using the VP16 reporter assay.; format: functional
[12] = target: T5, DNA repair and recombination protein RAD54-like (Homo sapiens, UniProt Q92698); assay: inhibitors of human RAD54 branch migration, confirmation, biochemical, fluorescence, cherry-picked samples, dose series (AID 651657); format: functional
T5 sequence (Q92698 whole entry): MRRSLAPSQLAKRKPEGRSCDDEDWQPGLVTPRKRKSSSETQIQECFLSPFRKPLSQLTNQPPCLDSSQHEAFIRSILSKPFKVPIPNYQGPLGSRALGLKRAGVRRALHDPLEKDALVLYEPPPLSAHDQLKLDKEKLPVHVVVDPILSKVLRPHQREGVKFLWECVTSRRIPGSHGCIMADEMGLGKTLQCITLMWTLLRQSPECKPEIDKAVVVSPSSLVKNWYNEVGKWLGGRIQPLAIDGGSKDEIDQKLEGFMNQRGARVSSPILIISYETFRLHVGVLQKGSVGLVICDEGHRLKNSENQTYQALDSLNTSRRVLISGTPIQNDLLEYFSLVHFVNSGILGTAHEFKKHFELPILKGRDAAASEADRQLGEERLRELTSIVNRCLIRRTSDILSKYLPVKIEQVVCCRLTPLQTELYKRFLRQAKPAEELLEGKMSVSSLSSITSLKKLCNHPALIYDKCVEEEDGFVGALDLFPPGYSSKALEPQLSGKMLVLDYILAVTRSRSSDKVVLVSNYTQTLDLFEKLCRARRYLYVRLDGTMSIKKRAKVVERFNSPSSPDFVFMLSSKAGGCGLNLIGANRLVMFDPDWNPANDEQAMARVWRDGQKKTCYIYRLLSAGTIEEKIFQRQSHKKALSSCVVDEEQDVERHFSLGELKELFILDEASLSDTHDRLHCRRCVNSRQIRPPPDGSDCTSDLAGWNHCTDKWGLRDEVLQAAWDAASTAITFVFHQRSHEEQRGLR

[13] = inhibitors of Vif binding to APOBEC3G peptide, primary screen, biochemical, TR-FRET, GST-Vif 1-94, biotin-A3G peptide, dose response retest (AID 1117319); format: functional;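 further: TR-FRET signal of purified GST-Vif binding a biotinylated A3G peptide; inhibitors lower the FRET signal by blocking Vif and A3G binding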
Cytochrome P450 3A4 = Cytochrome P450 3A4 (Homo sapiens, UniProt P08684);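 further: CYP3A4 tested as one member of a cytochrome P450 panel screen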
cells = format: functional, cell-based
[14] = target: T6, Nuclear receptor subfamily 0 group B member 1 (Homo sapiens, UniProt P51843); format: functional, cell-based;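 further: HEK293T cells transfected with SF-1 and DAX-1 plus StAR promoter luciferase reporter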
T6 sequence (P51843 whole entry): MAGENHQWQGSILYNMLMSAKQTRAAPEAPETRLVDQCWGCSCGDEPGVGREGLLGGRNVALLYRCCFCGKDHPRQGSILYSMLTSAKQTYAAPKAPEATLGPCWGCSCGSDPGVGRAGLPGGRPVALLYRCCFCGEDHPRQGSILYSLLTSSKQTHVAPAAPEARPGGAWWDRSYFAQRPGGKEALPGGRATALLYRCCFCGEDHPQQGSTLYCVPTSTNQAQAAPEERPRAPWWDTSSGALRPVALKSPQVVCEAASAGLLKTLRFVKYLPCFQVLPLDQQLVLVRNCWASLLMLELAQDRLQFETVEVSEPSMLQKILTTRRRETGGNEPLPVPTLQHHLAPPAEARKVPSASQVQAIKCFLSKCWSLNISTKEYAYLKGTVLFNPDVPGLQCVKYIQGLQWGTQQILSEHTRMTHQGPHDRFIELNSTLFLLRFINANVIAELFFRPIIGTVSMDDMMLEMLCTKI

[15] = target: T7, Hepatocyte nuclear factor 4-alpha (Homo sapiens, UniProt P41235); format: functional, cell-based;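 further: biochemical luminescence-based dose-response counterscreen measuring inhibition of HNF4 dimerization, run alongside a screen for blockers of ABHD5–perilipin-5 interaction; split luciferase complementation of HNF4 fusion proteins in cell lysate measuring dimerization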
T7 sequence (P41235 whole entry): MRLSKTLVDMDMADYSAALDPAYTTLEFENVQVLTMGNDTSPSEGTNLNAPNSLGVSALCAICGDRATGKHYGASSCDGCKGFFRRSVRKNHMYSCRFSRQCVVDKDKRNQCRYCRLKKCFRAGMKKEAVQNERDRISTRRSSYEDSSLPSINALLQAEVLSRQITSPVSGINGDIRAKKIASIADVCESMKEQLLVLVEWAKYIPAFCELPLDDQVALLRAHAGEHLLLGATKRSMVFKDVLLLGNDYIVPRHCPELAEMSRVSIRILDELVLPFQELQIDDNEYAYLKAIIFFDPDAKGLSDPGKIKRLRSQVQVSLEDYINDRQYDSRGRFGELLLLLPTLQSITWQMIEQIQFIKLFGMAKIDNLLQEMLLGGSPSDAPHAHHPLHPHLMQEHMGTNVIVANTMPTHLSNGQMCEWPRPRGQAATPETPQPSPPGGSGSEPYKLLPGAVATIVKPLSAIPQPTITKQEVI

[16] = miR-122 activators in hepatoma reporter cells, dose response, cell-based, Huh7 psiCHECK-miR122, Renilla luciferase, cherry-picked (AID 651956); format: functional;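 further: huh7 hepatoma cells stably carrying a psiCHECK-2 miR-122 sensor plasmid; renilla luciferase signal reporting endogenous miR-122 activity after 48 h compound exposure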
[17] = HEK293T cytotoxicity, dose response, cytotoxicity control for miR-122 modulator project, cell-based, activator set, cherry-pick (AID 720690); format: functional;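 further: HEK293T human cells scored for general mammalian cytotoxicity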
[18] = target: DNA (cytosine-5)-methyltransferase 1 (Homo sapiens, UniProt P26358); assay: DNMT1 methyltransferase inhibitors, confirmation, biochemical, fluorescent molecular beacon (AID 602386); format: functional
Chain of DNA (cytosine-5)-methyltransferase 1 (P26358 whole entry): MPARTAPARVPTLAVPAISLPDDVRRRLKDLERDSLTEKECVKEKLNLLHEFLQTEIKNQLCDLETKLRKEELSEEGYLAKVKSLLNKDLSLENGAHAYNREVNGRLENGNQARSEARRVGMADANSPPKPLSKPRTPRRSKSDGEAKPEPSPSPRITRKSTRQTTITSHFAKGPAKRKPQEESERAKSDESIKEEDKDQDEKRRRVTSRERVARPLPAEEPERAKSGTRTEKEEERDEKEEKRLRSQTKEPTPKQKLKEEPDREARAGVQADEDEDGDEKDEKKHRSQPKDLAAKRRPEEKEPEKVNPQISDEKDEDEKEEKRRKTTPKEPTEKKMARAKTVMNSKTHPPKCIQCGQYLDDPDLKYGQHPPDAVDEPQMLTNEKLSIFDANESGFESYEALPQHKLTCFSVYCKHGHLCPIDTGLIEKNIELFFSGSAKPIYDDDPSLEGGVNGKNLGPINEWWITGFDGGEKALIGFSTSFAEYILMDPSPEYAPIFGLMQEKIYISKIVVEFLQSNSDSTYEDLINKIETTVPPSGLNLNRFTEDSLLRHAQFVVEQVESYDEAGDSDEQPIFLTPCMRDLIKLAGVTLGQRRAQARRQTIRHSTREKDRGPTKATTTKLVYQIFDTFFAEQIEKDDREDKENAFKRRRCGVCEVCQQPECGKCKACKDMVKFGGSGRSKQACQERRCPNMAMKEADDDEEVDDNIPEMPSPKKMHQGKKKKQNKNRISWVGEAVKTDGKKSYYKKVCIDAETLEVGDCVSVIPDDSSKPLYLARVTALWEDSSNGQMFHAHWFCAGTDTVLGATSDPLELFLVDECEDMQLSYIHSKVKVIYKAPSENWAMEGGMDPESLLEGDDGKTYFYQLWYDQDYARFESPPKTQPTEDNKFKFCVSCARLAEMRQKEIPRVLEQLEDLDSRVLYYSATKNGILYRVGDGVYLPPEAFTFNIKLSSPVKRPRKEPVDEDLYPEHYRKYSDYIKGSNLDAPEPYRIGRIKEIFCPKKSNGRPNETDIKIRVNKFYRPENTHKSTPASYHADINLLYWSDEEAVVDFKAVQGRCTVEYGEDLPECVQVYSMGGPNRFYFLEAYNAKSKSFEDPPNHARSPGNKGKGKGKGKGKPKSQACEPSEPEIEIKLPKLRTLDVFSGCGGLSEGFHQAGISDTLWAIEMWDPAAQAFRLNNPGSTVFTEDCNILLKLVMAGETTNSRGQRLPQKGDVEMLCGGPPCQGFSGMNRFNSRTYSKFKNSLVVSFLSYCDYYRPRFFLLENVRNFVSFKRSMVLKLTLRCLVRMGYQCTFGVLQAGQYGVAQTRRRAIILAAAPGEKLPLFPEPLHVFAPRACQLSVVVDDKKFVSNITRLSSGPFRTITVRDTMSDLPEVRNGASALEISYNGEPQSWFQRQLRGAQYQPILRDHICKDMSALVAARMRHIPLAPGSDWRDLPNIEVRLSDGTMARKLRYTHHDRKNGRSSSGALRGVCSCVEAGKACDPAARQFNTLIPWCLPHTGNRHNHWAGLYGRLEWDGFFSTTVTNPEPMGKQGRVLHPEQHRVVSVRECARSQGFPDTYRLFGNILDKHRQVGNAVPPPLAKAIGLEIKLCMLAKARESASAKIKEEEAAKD

Chain of Cytochrome P450 3A4 (P08684 whole entry): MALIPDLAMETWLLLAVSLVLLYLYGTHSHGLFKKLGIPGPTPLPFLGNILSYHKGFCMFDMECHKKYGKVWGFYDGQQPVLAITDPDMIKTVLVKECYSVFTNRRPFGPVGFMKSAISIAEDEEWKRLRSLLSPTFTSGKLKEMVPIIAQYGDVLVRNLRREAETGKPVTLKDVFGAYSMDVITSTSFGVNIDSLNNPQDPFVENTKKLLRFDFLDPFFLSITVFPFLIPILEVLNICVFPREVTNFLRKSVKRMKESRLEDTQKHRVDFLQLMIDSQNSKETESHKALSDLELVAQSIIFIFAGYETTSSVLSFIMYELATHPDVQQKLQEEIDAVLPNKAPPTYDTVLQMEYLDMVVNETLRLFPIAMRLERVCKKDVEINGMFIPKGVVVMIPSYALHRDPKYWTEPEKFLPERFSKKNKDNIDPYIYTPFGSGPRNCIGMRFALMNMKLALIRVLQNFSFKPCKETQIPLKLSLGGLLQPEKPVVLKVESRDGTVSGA
Chain of SWI/SNF-related matrix-associated actin-dependent regulator of chromatin subfamily A member 2 (P51531 whole entry): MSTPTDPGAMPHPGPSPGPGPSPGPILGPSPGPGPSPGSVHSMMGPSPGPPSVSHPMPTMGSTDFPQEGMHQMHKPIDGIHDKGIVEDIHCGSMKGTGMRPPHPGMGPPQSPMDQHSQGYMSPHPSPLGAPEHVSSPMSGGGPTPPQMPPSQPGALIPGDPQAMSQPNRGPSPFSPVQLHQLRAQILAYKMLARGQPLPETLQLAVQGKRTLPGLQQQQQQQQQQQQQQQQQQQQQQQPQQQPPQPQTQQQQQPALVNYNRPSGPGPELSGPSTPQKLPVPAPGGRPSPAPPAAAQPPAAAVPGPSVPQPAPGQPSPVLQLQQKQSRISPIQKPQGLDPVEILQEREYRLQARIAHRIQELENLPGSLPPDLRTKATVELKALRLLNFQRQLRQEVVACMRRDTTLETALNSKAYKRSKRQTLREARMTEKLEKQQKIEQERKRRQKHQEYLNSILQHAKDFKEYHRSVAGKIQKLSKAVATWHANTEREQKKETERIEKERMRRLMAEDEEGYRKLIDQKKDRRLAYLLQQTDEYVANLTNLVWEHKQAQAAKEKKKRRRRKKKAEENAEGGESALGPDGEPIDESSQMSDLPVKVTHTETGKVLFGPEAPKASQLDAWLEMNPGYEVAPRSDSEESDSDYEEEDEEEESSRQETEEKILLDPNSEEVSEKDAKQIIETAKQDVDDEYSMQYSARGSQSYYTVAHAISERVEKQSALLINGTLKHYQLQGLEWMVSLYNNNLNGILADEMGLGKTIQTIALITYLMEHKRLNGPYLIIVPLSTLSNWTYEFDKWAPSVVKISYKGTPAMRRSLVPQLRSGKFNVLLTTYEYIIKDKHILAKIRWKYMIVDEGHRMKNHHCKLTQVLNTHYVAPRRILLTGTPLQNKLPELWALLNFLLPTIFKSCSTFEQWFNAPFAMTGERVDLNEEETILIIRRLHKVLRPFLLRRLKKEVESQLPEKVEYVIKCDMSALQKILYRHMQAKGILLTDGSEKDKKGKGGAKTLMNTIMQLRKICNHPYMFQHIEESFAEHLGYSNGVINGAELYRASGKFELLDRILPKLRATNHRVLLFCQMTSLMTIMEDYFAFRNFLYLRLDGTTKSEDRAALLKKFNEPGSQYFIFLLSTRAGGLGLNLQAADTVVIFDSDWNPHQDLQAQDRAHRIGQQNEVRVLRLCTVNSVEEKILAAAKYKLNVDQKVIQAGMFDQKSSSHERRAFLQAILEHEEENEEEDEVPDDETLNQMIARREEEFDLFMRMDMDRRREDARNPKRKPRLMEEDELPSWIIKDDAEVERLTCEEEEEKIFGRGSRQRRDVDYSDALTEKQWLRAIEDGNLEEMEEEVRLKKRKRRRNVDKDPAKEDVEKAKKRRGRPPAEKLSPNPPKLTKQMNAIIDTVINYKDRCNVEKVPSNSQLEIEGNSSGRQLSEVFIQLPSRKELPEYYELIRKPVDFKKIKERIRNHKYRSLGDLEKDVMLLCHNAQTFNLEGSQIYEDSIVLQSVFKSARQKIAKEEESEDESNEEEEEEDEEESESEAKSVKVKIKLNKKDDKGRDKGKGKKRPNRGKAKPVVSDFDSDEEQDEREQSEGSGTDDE

O=C(CN1C(=O)S/C(=C\c2cccs2)C1=O)Nc1ccc(O)cc1C(=O)O
AC50 [1]: 94.3 µM (active)

Cc1ccc2c(C)nc(Nc3nc(O)cc(CSc4nnnn4-c4ccccc4)n3)nc2c1
AC50 [2]: 20.5 µM (active) | AC50 [3]: 25.2 µM (active) | AC50 [4]: 12.5 µM (active) | AC50 [5]: 25.3 µM (active)

O=C(O)/C=C/C(=O)Nc1ccc(O)cc1
IC50 [6]: 16.2 µM (active) | IC50 [7]: 10.6 µM (active)

c1ccc(Nc2cc(Nc3ccccc3)[nH]n2)cc1
CC50 [8]: 100 µM (active) | IC50 [9]: 50.9 µM (active)

CC1CCCCN1Cc1c(O)ccc2c(O)c(-c3nc4ccccc4s3)c(=N)oc12 (configuration not stated)
IC50 (Protein skinhead-1): 4.74 µM (active) | CC50 [8]: 93.1 µM (active)

COc1ccccc1NS(=O)(=O)c1cc(NC(=O)/C=C/c2cccs2)ccc1N1CCOCC1
EC50 [10]: > 91.2 µM (inactive) | EC50 [11]: > 91.2 µM (inactive)

CN1CCN(c2nc(-c3cccnc3)nc3ccccc23)CC1
AC50 [12]: 21.1 µM (active) | IC50 [13]: > 100 µM (active) | AC50 (Cytochrome P450 3A4): 25.1 µM (inconclusive)

COc1ccc(C(=O)NCCS(=O)(=O)NCCc2ccccc2)cc1
IC50 (cells): > 67.5 µM (inactive) | IC50 [14]: > 67.5 µM (inactive)

CCOC(=O)NC1CCc2cc(OC)c(OC)c(OC)c2-c2ccc(SC)c(=O)cc21 (configuration not stated)
IC50 (cells): > 67.5 µM (inactive) | IC50 [14]: > 0.0309 µM (active)

Cc1ccc(S(=O)(=O)N2[C@@H](c3cccc(Cl)c3)C(C(=O)O)=CC[C@H]2c2cccc(C)c2)cc1
AC50 [1]: 48.3 µM (active)

Cc1cccc(C)c1OCc1cn(CC(=O)c2ccc(O)cc2)nn1
IC50 [15]: 4.78 µM (active)

C[C@H]1CN([C@@H](C)CO)C(=O)c2cc(NC(=O)Nc3ccc(C(F)(F)F)cc3)ccc2O[C@H]1CN(C)CC1CCCCC1
AC50 [16]: 8.8 µM (active) | AC50 [17]: 18.7 µM (active)

CCCCCNC(=O)C(c1ccc(OC)cc1)n1c(=O)c(-c2ccco2)nc2ccccc21 (configuration not stated)
IC50 [15]: 3.07 µM (active)

COc1cc2cc(Oc3ccc4ccc(=O)oc4c3)c(=O)oc2cc1O[C@@H]1O[C@H](CO)[C@@H](O)[C@H](O)[C@H]1O [DAPHNORIN]
IC50 [18]: 7.56 µM (active) | AC50 [1]: 87.2 µM (active)
